As a reminder, the IC50 is the concentration that inhibits the measured activity by half.

From patent publication US20200181104A1, “SSAO INHIBITORS AND USES THEREOF” (METACRINE, INC., priority 2018, published 2020) come the findings set out here.

Where a name gives a salt, the structure may show the parent alone. Some results are limits rather than exact numbers.

The target in the assay is T1, Recombinant Human SSAO/VAP-1/AOC3 (Homo sapiens, UniProt Q16853).
T1 construct: purchased R&D systems 3957-AO
T1 sequence (Q16853 1-763): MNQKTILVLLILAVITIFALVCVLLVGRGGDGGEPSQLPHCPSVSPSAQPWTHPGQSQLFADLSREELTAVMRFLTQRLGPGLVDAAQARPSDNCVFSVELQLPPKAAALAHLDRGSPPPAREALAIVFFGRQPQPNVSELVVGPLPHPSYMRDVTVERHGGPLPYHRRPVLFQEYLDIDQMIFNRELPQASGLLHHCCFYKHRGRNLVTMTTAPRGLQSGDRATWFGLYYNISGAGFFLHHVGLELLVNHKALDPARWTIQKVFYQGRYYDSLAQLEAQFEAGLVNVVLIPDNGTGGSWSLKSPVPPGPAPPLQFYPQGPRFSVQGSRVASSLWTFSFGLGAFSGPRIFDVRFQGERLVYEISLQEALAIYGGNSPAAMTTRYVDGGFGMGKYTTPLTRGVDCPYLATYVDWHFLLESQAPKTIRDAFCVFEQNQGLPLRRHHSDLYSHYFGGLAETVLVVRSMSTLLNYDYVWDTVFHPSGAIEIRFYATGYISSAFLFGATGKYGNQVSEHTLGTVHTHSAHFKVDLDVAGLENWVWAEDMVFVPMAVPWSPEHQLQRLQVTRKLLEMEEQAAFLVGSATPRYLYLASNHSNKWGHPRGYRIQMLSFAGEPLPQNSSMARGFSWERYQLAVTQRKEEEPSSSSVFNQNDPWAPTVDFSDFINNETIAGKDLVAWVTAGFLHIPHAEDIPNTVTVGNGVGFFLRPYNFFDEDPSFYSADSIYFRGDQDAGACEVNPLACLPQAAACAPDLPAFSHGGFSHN
Put plainly: Human Semicarbazide-Sensitive Amine Oxidase (SSAO) Assay. The format is biochemical. Particulars: recombinant enzyme, 30 minutes preincubation at 37° C., benzylamine substrate, Amplex Ultra Red/HRP fluorescence. The method in brief:
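Recombinant human SSAO/VAP-1 (2.5 μg/ml working stock in 50 mM HEPES) preincubated with compound 30 min at 37 °C over a 6-10 point CRC. Benzylamine substrate starts the reaction. H2O2 read kinetically over 30-120 min via Amplex Ultra Red/HRP fluorescence (ex 544/em 590 nm) to derive IC50.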

`CO[C@H]1CCCN(C(=O)C23CCC(c4ccc(OC/C(=C/F)CN)cc4)(CC2)CC3)C1` [Compound 2.110, (S,E)-(4-(4-((2-(aminomethyl)-3-fluoroallyl)oxy)phenyl)bicyclo [2.2.2]octan-1-yl)(3-methoxypiperidin-1-yl)methanone]: the IC50 is no more than 10 nM.
As for `COc1nccc(CNC(=O)C23CCC(c4ccc(OC/C(=C/F)CN)cc4)(CC2)CC3)n1` [Compound 2.140, (E)-4-(4-((2-(aminomethyl)-3-fluoroallyl)oxy)phenyl)-N-((2-methoxypyrimidin-4-yl)methyl)bicyclo[2.2.2]octane-1-carboxamide], the figure is no more than 10 nM; as for `CNC(=O)C1(c2ccc(OC/C(=C/F)CN)cc2)CCCCC1` [Compound 1.01, (E)-1-(4-((2-(Aminomethyl)-3-fluoroallyl)oxy)phenyl)-N-methylcyclohexanecarboxamide], 10 to 100 nM.
As for `NC/C(=C\F)COc1ccc(C23CCC(C(=O)N4CC(O)(C5CC5)C4)(CC2)CC3)cc1` [Compound 2.99, (E)-(4-(4-((2-(aminomethyl)-3-fluoroallyl)oxy)phenyl)bicyclo [2.2.2]octan-1-yl)(3-cyclopropyl-3-hydroxyazetidin-1-yl)methanone], the figure is no more than 10 nM; as for `COc1ccc(CNC(=O)C23CCC(c4ccc(OC/C(=C/F)CN)cc4)(CC2)CC3)cn1` [Compound 2.141, (E)-4-(4-((2-(aminomethyl)-3-fluoroallyl)oxy)phenyl)-N-((6-methoxpyridin-3-yl)methyl)bicyclo[2.2.2]octane-1-carboxamide], no more than 10 nM.
Regarding `CNC(=O)[C@H]1C2CC3CC1C[C@@](c1ccc(OC/C(=C/F)CN)cc1)(C3)C2` (single isomer, unassigned) [Compound 6, anti-5-(4-(((E)-2-(Aminomethyl)-3-fluoroallyl)oxy)phenyl)-N-methyladamantane-2-carboxamide Hydrochloride], the IC50 was no more than 10 nM.
As for `NC/C(=C\F)COc1ccc(C23CCC(C(=O)NC45CCC(O)(CC4)CC5)(CC2)CC3)cc1` [Compound 2.58, (E)-4-(4-((2-(aminomethyl)-3-fluoroallyl)oxy)phenyl)-N-(4-hydroxybicyclo[2.2.2]octan-1-yl)bicyclo[2.2.2]octane-1-carboxamide], the figure is no more than 10 nM; as for `CNC(=O)C12CCCC(c3ccc(OC/C(=C/F)CN)cc3)(CC1)CC2` [Compound 10, (E)-5-(4-((2-(Aminomethyl)-3-fluoroallyl)oxy)phenyl)-N-methylbicyclo[3.2.2]nonane-1-carboxamide Hydrochloride], no more than 10 nM; as for `CNC(=O)[C@H]1C2CC3CC1C[C@](c1ccc(OC/C(=C/F)CN)cc1)(C3)C2` (single isomer, unassigned) [Compound 6.01, syn-5-(4-(((E)-2-(Aminomethyl)-3-fluoroallyl)oxy)phenyl)-N-methyladamantane-2-carboxamide Hydrochloride], no more than 10 nM.
In the case of `CC(C)(O)CNC(=O)C12CCC(c3ccc(OC/C(=C/F)CN)cc3)(CC1)CC2` [Compound 2.48, (E)-4-(4-((2-(aminomethyl)-3-fluoroallyl)oxy)phenyl)-N-(2-hydroxy-2-methylpropyl)bicyclo[2.2.2] octane-1-carboxamide] it was no more than 10 nM.
In the case of `NC/C(=C\F)COc1ccc(C23CCC(C(=O)NCc4ccncn4)(CC2)CC3)cc1` [Compound 2.155, (E)-4-(4-((2-(aminomethyl)-3-fluoroallyl)oxy)phenyl)-N-(pyrimidin-4-ylmethyl)bicyclo[2.2.2]octane-1-carboxamide] it was no more than 10 nM; in that of `CO[C@H]1C[C@@H](NC(=O)C23CC(c4ccc(OC/C(=C/F)CN)cc4)(C2)C3)C1` [Compound 3.05, 3-(4-(((E)-2-(aminomethyl)-3-fluoroallyl)oxy)phenyl)-N-((1r,3r)-3-methoxycyclobutyl)bicyclo [1.1.1]pentane-1-carboxamide], no more than 10 nM; in that of `COC(=O)C12CCC(c3ccc(OC/C(=C/F)CN)cc3)(CC1)CC2` [Compound 2.04, (E)-methyl 4-(4-((2-(aminomethyl)-3-fluoroallyl)oxy)phenyl)bicyclo [2.2.2]octane-1-carboxylate], no more than 10 nM.
Regarding `COC1(CNC(=O)C23CCC(c4ccc(OC/C(=C/F)CN)cc4)(CC2)CC3)CCCCC1` [Compound 2.102, (E)-4-(4-((2-(aminomethyl)-3-fluoroallyl)oxy)phenyl)-N-((1-methoxycyclohexyl)methyl) bicyclo[2.2.2]octane-1-carboxamide], the IC50 lay in the range of 10 to 100 nM.
In the case of `COc1ncccc1CNC(=O)C12CCC(c3ccc(OC/C(=C/F)CN)cc3)(CC1)CC2` [Compound 2.137, (E)-4-(4-((2-(aminomethyl)-3-fluoroallyl)oxy)phenyl)-N-((2-methoxypyridin-3-yl)methyl)bicyclo[2.2.2]octane-1-carboxamide] it was no more than 10 nM; in that of `CC(C)OC1CN(C(=O)C23CCC(c4ccc(OC/C(=C/F)CN)cc4)(CC2)CC3)C1` [Compound 2.56, (E)-(4-(4-((2-(aminomethyl)-3-fluoroallyl)oxy)phenyl)bicyclo [2.2.2]octan-1-yl)(3-isopropoxyazetidin-1-yl)methanone], no more than 10 nM.
In the case of `CC1(C)CC(NC(=O)C23CCC(c4ccc(OC/C(=C/F)CN)cc4)(CC2)CC3)CC(C)(C)O1` [Compound 2.105, (E)-4-(4-((2-(aminomethyl)-3-fluoroallyl)oxy)phenyl)-N-(2,2,6,6-tetramethyltetrahydro-2H-pyran-4-yl)bicyclo[2.2.2]octane-1-carboxamide] it was no more than 10 nM.
As for `NC/C(=C\F)COc1ccc(C23CCC(C(=O)NC4CCOCC4)(CC2)C3)cc1` [Compound 4.01, (E)-4-(4-((2-(Aminomethyl)-3-fluoroallyl)oxy)phenyl)-N-(tetrahydro-2H-pyran-4-yl)bicyclo[2.2.1]heptane-1-carboxamide Hydrochloride], the figure is no more than 10 nM; as for `CC1(C)CN(C(=O)C23CCC(c4ccc(OC/C(=C/F)CN)cc4)(CC2)CC3)C1` [Compound 2.52, (E)-(4-(4-((2-(aminomethyl)-3-fluoroallyl)oxy)phenyl)bicyclo [2.2.2]octan-1-yl)(3,3-dimethylazetidin-1-yl)methanone], no more than 10 nM.
On to `NC/C(=C\F)CNc1ccc(C23CCC(C(=O)NC4CCOCC4)(CC2)CC3)cc1` [Compound 9, (E)-4-(4-((2-(Aminomethyl)-3-fluoroallyl)amino)phenyl)-N-(tetrahydro-2H-pyran-4-yl)bicyclo[2.2.2]octane-1-carboxamide Hydrochloride], for which the 50% inhibitory concentration (IC50) is 10 to 100 nM.
In the case of `NC/C(=C\F)COc1ccc(C23CCC(C(=O)N4CC(OCCO)C4)(CC2)CC3)cc1` [Compound 2.44, (E)-(4-(4-((2-(aminomethyl)-3-fluoroallyl)oxy)phenyl)bicyclo [2.2.2]octan-1-yl)(3-(2-hydroxyethoxy)azetidin-1-yl)methanone] it was no more than 10 nM.
As for `Cc1n[nH]c(C)c1CNC(=O)C12CCC(c3ccc(OC/C(=C/F)CN)cc3)(CC1)CC2` [Compound 2.81, (E)-4-(4-((2-(aminomethyl)-3-fluoroallyl)oxy)phenyl)-N-((3,5-dimethyl-1H-pyrazol-4-yl)methyl)bicyclo[2.2.2]octane-1-carboxamide], the figure is no more than 10 nM; as for `NC/C(=C\F)COc1ccc(C23CCC(C(=O)NC4CCOC4)(CC2)CC3)cc1` (stereo not drawn) [Compound 2.21, (E)-4-(4-((2-(amino-methyl)-3-fluoroallyl)oxy)phenyl)-N-(tetrahydrofuran-3-yl)bicyclo[2.2.2]octane-1-carboxamide], no more than 10 nM.
In the case of `NC/C(=C\F)COc1ccc(C23CCC(C(=O)NC4CC5CCC(C4)O5)(CC2)CC3)cc1` (stereo not drawn) [Compound 2.84, (E)-4-(4-((2-(aminomethyl)-3-fluoroallyl)oxy)phenyl)-N-(8-oxabicyclo[3.2.1]octan-3-yl)bicyclo[2.2.2]octane-1-carboxamide] it was no more than 10 nM.
Take `NC/C(=C\F)COc1ccc(C23CCC(C(=O)NC4(CO)CC4)(CC2)CC3)cc1` [Compound 2.73, (E)-4-(4-((2-(aminomethyl)-3-fluoroallyl)oxy)phenyl)-N-(1-(hydroxymethyl)cyclopropyl) bicyclo[2.2.2]octane-1-carboxamide]: the 50% inhibitory concentration (IC50) was no more than 10 nM.
Take `NC/C(=C\F)COc1ccc(C23CCC(C(=O)NC4CCCOC4)(CC2)CC3)cc1` (stereo not drawn) [Compound 2.64, (E)-4-(4-((2-(aminomethyl)-3-fluoroallyl)oxy)phenyl)-N-(tetrahydro-2H-pyran-3-yl)bicyclo[2.2.2]octane-1-carboxamide]: the IC50 is no more than 10 nM.
In the case of `NC/C(=C\F)COc1ccc(C23CCC(C(=O)NC45CC(O)(C4)C5)(CC2)CC3)cc1` [Compound 2.93, (E)-4-(4-((2-(aminomethyl)-3-fluoroallyl)oxy)phenyl)-N-(3-hydroxybicyclo[1.1.1]pentan-1-yl)bicyclo[2.2.2]octane-1-carboxamide], the 50% inhibitory concentration (IC50) was no more than 10 nM.
